Results published in US20230114241A1, “METHODS OF TREATING EPILEPSY USING THE SAME” (Trevena, Inc., priority 2019, published 2023).

Legend:
Type in all cases: cell-based
[1] = molecular target: human sphingosine-1-phosphate receptor 3 (S1P3) (Homo sapiens, UniProt Q99500); assay: Selectivity: inhibition of cAMP production (HTRF), S1P3 CHO-K1 cells
Protocol: (§1) Cell Culturing and Assay Plating Cell lines were cultured in AssayComplete™ Media 6 (DiscoverX Corporation, Cat #: 920018GF2) at 37° C. and 5% CO2 in a humidified CO2 and temperature-controlled incubator. To begin assay plating, cells were washed with Dulbecco's phosphate buffered saline (CellGro, Cat #: 21-031-CV) and lifted from the culturing flask by incubation (37° C., 5 min) with CellStripper (Cellgro, Cat #: 25-056-CI). […] Plated cells were incubated overnight at 37° C. and 5% CO2 in a humidified CO2 and temperature-controlled incubator. Detecting Inhibition of cAMP Production
S1P3 and S1P5 Agonist-promoted G-protein responses were determined by measuring changes in intracellular cAMP using the HTRF® cAMP HiRange kit (CisBio, Cat #: 62AM6PEJ) based on time-resolved fluorescence resonance energy transfer (TR-FRET) technology. […] Following a 30-minute room temperature incubation the components of the cAMP HiRange kit were added as per the manufacturer's instructions. After an hour incubation at room temperature, plates were analyzed by a BMG PheraStar microplate reader.
(§2) These values are normalized to fimgolimod, a known agonist of the sphingosine-1-phosphate 3 and 5 receptor or CYM5520, a known agonist of the sphingosine-1-phosphate 2 receptor. The tables also include potency values (pEC50) for modulating discrete receptor-mediated activities (inhibition of cAMP production or inositol monophosphate accumulation).

[2] = molecular target: T1, human sphingosine-1-phosphate receptor 1 (S1P1) (Homo sapiens, UniProt P21453); assay: β-Arrestin2 recruitment assay (PathHunter), S1P1 CHO-K1 cells; conditions: for Emax: CHO-K1, efficacy normalized to maximum efficacy of fingolimod, read-out: hS1P1 B-arrestin2 SPAN; for EC50: read-out: hS1P1 B-arrestin2 pEC50 (converted)
Method in brief: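 CHO-K1 cells co-expressing EA-β-arrestin2 and ProLink-tagged human S1P1 plated overnight, then stimulated 60 min at 37 °C. Enzyme-fragment complementation (β-galactosidase) detected after 1 h at room temperature by luminescence; values normalized to fingolimod.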
Target sequence in this assay (P21453 whole entry, the tested form may be a part): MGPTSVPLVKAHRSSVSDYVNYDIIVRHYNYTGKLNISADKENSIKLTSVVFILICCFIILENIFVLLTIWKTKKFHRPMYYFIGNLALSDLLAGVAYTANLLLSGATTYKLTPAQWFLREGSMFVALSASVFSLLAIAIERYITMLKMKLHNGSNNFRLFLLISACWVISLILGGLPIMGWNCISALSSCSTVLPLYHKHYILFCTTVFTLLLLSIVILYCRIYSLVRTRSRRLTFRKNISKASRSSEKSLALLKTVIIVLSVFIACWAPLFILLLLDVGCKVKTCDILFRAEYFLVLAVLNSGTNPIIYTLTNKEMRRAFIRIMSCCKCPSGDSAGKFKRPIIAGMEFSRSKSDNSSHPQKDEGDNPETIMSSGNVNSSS
Target sequence in this assay (P32121 whole entry partner, the tested form may be a part): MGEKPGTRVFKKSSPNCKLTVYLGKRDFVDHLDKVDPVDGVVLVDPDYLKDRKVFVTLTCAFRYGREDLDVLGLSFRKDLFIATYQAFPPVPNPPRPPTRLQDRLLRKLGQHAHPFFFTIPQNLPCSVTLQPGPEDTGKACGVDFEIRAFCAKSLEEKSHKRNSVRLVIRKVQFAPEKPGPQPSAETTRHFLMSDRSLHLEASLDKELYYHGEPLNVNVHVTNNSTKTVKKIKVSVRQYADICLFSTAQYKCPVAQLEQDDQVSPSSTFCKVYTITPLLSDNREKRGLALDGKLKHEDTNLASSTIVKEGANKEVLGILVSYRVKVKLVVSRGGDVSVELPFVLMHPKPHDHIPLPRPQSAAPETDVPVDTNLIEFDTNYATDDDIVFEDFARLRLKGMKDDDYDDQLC

[3] = molecular target: human sphingosine-1-phosphate receptor 2 (S1P2) (Homo sapiens, UniProt O95136); assay: Selectivity: inositol monophosphate production (IP-one), S1P2 CHO-K1 cells
Chain of human sphingosine-1-phosphate receptor 2 (S1P2) (O95136 whole entry): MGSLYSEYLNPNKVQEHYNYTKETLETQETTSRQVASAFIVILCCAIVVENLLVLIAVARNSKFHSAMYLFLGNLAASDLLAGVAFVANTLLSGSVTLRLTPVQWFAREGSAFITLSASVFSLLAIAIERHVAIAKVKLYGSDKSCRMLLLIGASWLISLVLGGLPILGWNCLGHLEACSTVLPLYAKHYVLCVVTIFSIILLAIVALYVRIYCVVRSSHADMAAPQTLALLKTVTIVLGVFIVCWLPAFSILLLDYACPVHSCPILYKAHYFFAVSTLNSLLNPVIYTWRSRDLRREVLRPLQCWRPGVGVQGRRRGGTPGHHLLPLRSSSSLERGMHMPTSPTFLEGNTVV
Protocol: as §1
S1P2 Agonist-promoted G-protein responses were determined by measuring changes in intracellular inositol monophosphate using the IP-one TB kit (CisBio, Cat #: 62IPAPEJ) based on time-resolved fluorescence resonance energy transfer (TR-FRET) technology. AssayComplete™ Cell Plating 2 Reagent was removed and replaced with 1× IP-one stimulation buffer (as per manufacturer's instructions) along with test or control compounds at the desired concentrations.
Following a 60-minute incubation at 37° C. and 5% CO2 in a humidified CO2 and temperature-controlled incubator, the components of the IP-one TB kit were added as per the manufacturer's instructions. After an hour incubation at room temperature, plates were analyzed by a BMG PheraStar microplate reader.
as §2

[4] = molecular target: T1, human sphingosine-1-phosphate receptor 1 (S1P1); assay: Inhibition of cAMP production (HTRF cAMP HiRange), S1P1 CHO-K1 cells; conditions: for Emax: CHO-K1, efficacy normalized to maximum efficacy of fingolimod, read-out: hS1P1 CAMP SPAN; for EC50: inhibition of cAMP production, S1P1, read-out: hS1P1 CAMP pEC50 (converted)
Method in brief: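 CHO-K1 cells co-expressing human S1P1 (C-terminal ProLink tag) and EA-β-arrestin2, plated overnight; after 30 min compound incubation at 37 °C, intracellular cAMP measured by HTRF TR-FRET following 1 h at room temperature. Values normalized to fingolimod.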
Target sequence in this assay (P21453 whole entry, the tested form may be a part): as the sequence (P21453 whole entry, the tested form may be a part) above

Chain of human sphingosine-1-phosphate receptor 3 (S1P3) (Q99500 whole entry): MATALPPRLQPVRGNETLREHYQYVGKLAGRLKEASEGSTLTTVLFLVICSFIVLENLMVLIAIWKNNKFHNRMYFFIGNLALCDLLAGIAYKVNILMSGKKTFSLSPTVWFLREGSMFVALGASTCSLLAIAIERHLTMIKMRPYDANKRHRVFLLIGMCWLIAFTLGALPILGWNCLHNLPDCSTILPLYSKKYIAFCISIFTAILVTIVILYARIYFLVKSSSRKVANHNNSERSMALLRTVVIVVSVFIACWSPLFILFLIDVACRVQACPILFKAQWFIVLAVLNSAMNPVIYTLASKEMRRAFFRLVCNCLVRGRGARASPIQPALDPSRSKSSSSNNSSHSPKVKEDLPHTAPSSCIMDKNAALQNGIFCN

| Structure (SMILES) | Emax ([1]; CHO-K1, efficacy normalized to maximal efficacy of fimgolimod, read-out: hS1P3 cAMP SPAN) [%] | EC50 ([1]; inhibition of cAMP production, read-out: hS1P3 cAMP pEC50 (converted)) [µM] | Emax [2] [%] | EC50 ([2]; β-arrestin2 recruitment, S1P1) [µM] | Emax ([3]; CHO-K1, efficacy normalized to maximal efficacy of CYM5520, read-out: hS1P2 IP-one SPAN) [%] | EC50 ([3]; inositol monophosphate accumulation, read-out: hS1P2 IP-one pEC50 (converted)) [µM] | Emax [4] [%] | EC50 [4] [µM] | hS1P1 B-arrestin2 pEC50 ([2]; β-arrestin2 recruitment, S1P1) |
| --- | --- | --- | --- | --- | --- | --- | --- | --- | --- |
| CC(C)Nc1ccc(-c2nc(-c3ccc4oc(=O)[nH]c4c3)no2)cc1C#N [Compound 422, 2-(isopropylamino)-5-(3-(2-oxo-2,3-dihydrobenzo[d]oxazol-5-yl)-1,2,4-oxadiazol-5-yl)benzonitrile] | < 50 | < 10 | > 75 | < 10 | < 50 | < 10 | > 75 | < 0.316 | – |
| CCC1(CC)CC(=O)c2cc(-c3nc(-c4cnccn4)no3)ccc2O1 [Compound 617, 2,2-diethyl-6-(3-(pyrazin-2-yl)-1,2,4-oxadiazol-5-yl)chroman-4-one] | – | – | > 75 | > 10 | – | – | < 75 | > 0.316 | – |
| CC(C)(CO)n1nnc2cc(-c3noc(-c4ccccc4Cl)n3)ccc21 [Compound 618, 2-(5-(5-(2-chloro-phenyl)-1,2,4-oxadiazol-3-yl)-1H-benzo[d][1,2,3]triazol-1-yl)-2-methylpropan-1-ol] | – | – | < 75 | < 10 | – | – | < 75 | > 0.316 | – |
| COc1ncccc1-c1noc(-c2ccc3c(c2)nnn3C(C)C)n1 [Compound 619, 5-(1-isopropyl-1H-benzo[d][1,2,3]triazol-5-yl)-3-(2-methoxy-pyridin-3-yl)-1,2,4-oxadiazole] | – | – | > 75 | < 10 | – | – | > 75 | < 0.316 | – |
| CCC1(CC)CC(=O)c2cc(-c3nc(-c4cncnc4)no3)ccc2O1 [Compound 620, 2,2-diethyl-6-(3-(pyrimidin-5-yl)-1,2,4-oxadiazol-5-yl)chroman-4-one] | – | – | > 75 | < 10 | – | – | < 75 | < 0.316 | – |
| CCC1(CC)CC(=O)c2cc(-c3nc(-c4cccnn4)no3)ccc2O1 [Compound 621, 2,2-diethyl-6-(3-(pyridazin-3-yl)-1,2,4-oxadiazol-5-yl)chroman-4-one] | – | – | > 75 | > 10 | – | – | > 75 | > 0.316 | – |
| CCC1(CC)CC(=O)c2cc(-c3nc(-c4ccc5ncoc5c4)no3)ccc2O1 [Compound 622, 6-(3-(benzo[d]oxazol-6-yl)-1,2,4-oxadiazol-5-yl)-2,2-diethyl-chroman-4-one] | – | – | < 75 | > 10 | – | – | > 75 | < 0.316 | – |
| CC(C)(CO)n1nnc2cc(-c3noc(-c4ccncc4C(F)(F)F)n3)ccc21 [Compound 626, 2-methyl-2-(5-(5-(3-(trifluoro-methyl)pyridin-4-yl)-1,2,4-oxadiazol-3-yl)-1H-benzo[d] [1,2,3]triazol-1-yl)propan-1-ol] | – | – | < 75 | – | – | – | < 75 | > 0.316 | – |
| CC(C)Nc1ccc(-c2ncc(-c3ccc4[nH]c(=O)[nH]c4c3)cn2)cc1C#N [Compound 628, 2-(isopropylamino)-5-(5-(2-oxo-2,3-dihydro-1H-benzo[d]imidazol-5-yl)pyrimidin-2-yl)benzonitrile] | – | – | < 75 | < 10 | – | – | > 75 | < 0.316 | – |
| O=C1CNc2ccc(-c3nc(-c4cccnc4)no3)cc2N1 [Compound 629, 7-[3-(pyridin-3-yl)-1,2,4-oxadiazol-5-yl]-1,2,3,4-tetra-hydroquinoxalin-2-one] | – | – | < 75 | > 10 | – | – | > 75 | > 0.316 | – |
| CCCC1CC(=O)c2ccc(-c3nc(-c4cccnc4)no3)cc2O1 (stereo not shown) [Compound 630, 2-propyl-7-[3-(pyridin-3-yl)-1,2,4-oxadiazol-5-yl]-3,4-dihydro-2H-1-benzopyran-4-one] | – | – | < 75 | > 10 | – | – | < 75 | > 0.316 | – |
| CCCCC1CC(=O)c2ccc(-c3nc(-c4cccnc4)no3)cc2O1 (stereo not shown) [Compound 633, 2-butyl-7-[3-(pyridin-3-yl)-1,2,4-oxadiazol-5-yl]-3,4-dihydro-2H-1-benzopyran-4-one] | – | – | < 75 | > 10 | – | – | < 75 | > 0.316 | – |
| Cn1cnc2ccc(-c3nnc(-c4ccc(NC(C)(C)CO)c(C#N)c4)o3)cc21 [Compound 634, 2-[(1-hydroxy-2-methylpropan-2-yl)amino]-5-[5-(1-methyl-1H-1,3-benzodiazol-6-yl)-1,3,4-oxadiazol-2-yl]benzonitrile] | – | – | < 75 | > 10 | – | – | < 75 | > 0.316 | – |
| Cn1cnc2ccc(-c3nnc(-c4ccc(NCC(F)(F)CO)c(C#N)c4)o3)cc21 [Compound 635, 2-[(2,2-difluoro-3-hydroxypropyl)amino]-5-[5-(1-methyl-1H-1,3-benzodiazol-6-yl)-1,3,4-oxadiazol-2-yl]benzonitrile] | – | – | < 75 | < 10 | – | – | < 75 | < 0.316 | – |
| CC(C)n1nnc2cc(-c3noc(-c4cccc5c4CCC5O)n3)ccc21 (stereo not shown) [Compound 636, 4-{3-[1-(propan-2-yl)-1H-1,2,3-benzotriazol-5-yl]-1,2,4-oxadiazol-5-yl}-2,3-dihydro-1H-inden-1-ol] | – | – | > 75 | < 10 | – | – | > 75 | < 0.316 | – |
| CC(C)Nc1ccc(-c2nnc(-c3ccc4oc(=O)[nH]c4c3)o2)cc1C#N [Compound 637, 5-[5-(2-oxo-2,3-dihydro-1,3-benzoxazol-5-yl)-1,3,4-oxadiazol-2-yl]-2-[(propan-2-yl)amino]benzonitrile] | – | – | > 75 | < 10 | – | – | > 75 | < 0.316 | – |
| CC(C)Nc1ccc(-c2nnc(-c3ccc4c(c3)C(=O)NCC4)o2)cc1C#N [Compound 638, 5-[5-(1-oxo-1,2,3,4-tetrahydroisoquinolin-7-yl)-1,3,4-oxadiazol-2-yl]-2-[(propan-2-yl)amino]benzonitrile] | – | – | < 75 | > 10 | – | – | < 75 | < 0.316 | – |
| CCC1(CC)CC(=O)c2cc(-c3nc(-c4ccncn4)no3)ccc2O1 [Compound 639, 2,2-diethyl-6-(3-(pyrimidin-4-yl)-1,2,4-oxadiazol-5-yl)chroman-4-one] | – | – | > 75 | > 10 | – | – | < 75 | > 0.316 | – |
| CCC1(CC)CC(=O)c2cc(-c3nc(-c4ncccn4)no3)ccc2O1 [Compound 640, 2,2-diethyl-6-(3-(pyrimidin-2-yl)-1,2,4-oxadiazol-5-yl)chroman-4-one] | – | – | < 75 | > 10 | – | – | > 75 | > 0.316 | – |
| CC(C)(CO)n1nnc2cc(-c3noc(-c4ccc5nc[nH]c5c4)n3)ccc21 [Compound 642, 2-(5-(5-(1H-benzo[d]imidazol-6-yl)-1,2,4-oxadiazol-3-yl)-1H-benzo[d][1,2,3]triazol-1-yl)-2-methylpropan-1-ol] | – | – | < 75 | – | – | – | < 75 | > 0.316 | – |
| O=C1CNc2ccc(-c3nc(-c4cn[nH]c4)no3)cc2N1 [Compound 645, 7-[3-(1H-pyrazol-4-yl)-1,2,4-oxadiazol-5-yl]-1,2,3,4-tetrahydro-quinoxalin-2-one] | – | – | < 75 | > 10 | – | – | > 75 | > 0.316 | – |
| COc1ccc(-c2noc(-c3ccc4c(c3)nnn4CC(C)(C)O)n2)c(C)c1 [Compound 647, 1-{5-[3-(4-methoxy-2-methylphenyl)-1,2,4-oxadiazol-5-yl]-1H-1,2,3-benzotriazol-1-yl}-2-methylpropan-2-ol] | – | – | – | – | – | – | – | < 0.316 | >5 |
